For the first experiment, the system named is NCI-H2087. Nature of the experiment: relative viability (nuclei count vs DMSO), 5 days (fraction); higher = more cells survive. The conditions noted are these: first compound 0.08 µM. In outline: (§1)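 Relative viability was taken as the ratio of nuclei in treated wells to nuclei in vehicle wells. Lung cancer cell lines in 1536-well plates received compounds by pin tool one day after seeding, either one drug alone or a fixed anchor-drug dose plus five library-drug doses (not always all listed) in √10 steps. Nuclei were counted on 4× images after 5 days of treatment, and values are medians of duplicate plates.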
`CCCCCCCCCCCC1=C(O)C(=O)C=C(O)C1=O` [Embelin] + CC(C)C[C@H](NC(=O)[C@H](Cc1ccccc1)NC(=O)c1cnccn1)B(O)O [Bortezomib] (partner 0.002 µM) returned a relative viability of 0.83.
On the same count and under the same terms, to `CCCCCCCCCCCC1=C(O)C(=O)C=C(O)C1=O` [Embelin] + CS(=O)(=O)CCNCc1ccc(-c2ccc3ncnc(Nc4ccc(OCc5cccc(F)c5)c(Cl)c4)c3c2)o1 [Lapatinib] (partner 2 µM) belongs 1.07; to `CCCCCCCCCCCC1=C(O)C(=O)C=C(O)C1=O` [Embelin] + C[C@@H](Oc1cc(-c2cnn(C3CCNCC3)c2)cnc1N)c1c(Cl)ccc(F)c1Cl [Crizotinib] (partner 1 µM), 0.886.

The same experiment, now with this note: first compound 0.8 µM.
Turning to `CCCCCCCCCCCC1=C(O)C(=O)C=C(O)C1=O` [Embelin] + O=C(CCCCCCC(=O)Nc1ccccc1)NO [Vorinostat] (partner 1 µM), the relative viability worked out at 0.714.
Turning to `CCCCCCCCCCCC1=C(O)C(=O)C=C(O)C1=O` [Embelin] + C[C@]1(O)C[C@@H](c2nc(-c3ccc4ccc(-c5ccccc5)nc4c3)c3c(N)nccn32)C1 [Linsitinib] (partner 1 µM), the relative viability worked out at 0.97.
`CCCCCCCCCCCC1=C(O)C(=O)C=C(O)C1=O` [Embelin] + CC(C)C[C@H](NC(=O)[C@H](Cc1ccccc1)NC(=O)c1cnccn1)B(O)O [Bortezomib] (partner 0.002 µM): the relative viability came out at 0.807.
Take `CCCCCCCCCCCC1=C(O)C(=O)C=C(O)C1=O` [Embelin] + CS(=O)(=O)CCNCc1ccc(-c2ccc3ncnc(Nc4ccc(OCc5cccc(F)c5)c(Cl)c4)c3c2)o1 [Lapatinib] (partner 2 µM): the relative viability is 1.02.
On to `CCCCCCCCCCCC1=C(O)C(=O)C=C(O)C1=O` [Embelin] + C[C@@H](Oc1cc(-c2cnn(C3CCNCC3)c2)cnc1N)c1c(Cl)ccc(F)c1Cl [Crizotinib] (partner 1 µM), for which the relative viability is 0.899.

The experiment is the same for the next values; noted with them: first compound 2.53 µM.
Take `CCCCCCCCCCCC1=C(O)C(=O)C=C(O)C1=O` [Embelin] + O=C(CCCCCCC(=O)Nc1ccccc1)NO [Vorinostat] (partner 1 µM): the relative viability amounted to 0.759.
Same read-out and setting: the result for `CCCCCCCCCCCC1=C(O)C(=O)C=C(O)C1=O` [Embelin] + C[C@]1(O)C[C@@H](c2nc(-c3ccc4ccc(-c5ccccc5)nc4c3)c3c(N)nccn32)C1 [Linsitinib] (partner 1 µM) reads 1.01.
The compound `CCCCCCCCCCCC1=C(O)C(=O)C=C(O)C1=O` [Embelin] + CC(C)C[C@H](NC(=O)[C@H](Cc1ccccc1)NC(=O)c1cnccn1)B(O)O [Bortezomib] (partner 0.002 µM) showed a relative viability of 0.735.
`CCCCCCCCCCCC1=C(O)C(=O)C=C(O)C1=O` [Embelin] + CS(=O)(=O)CCNCc1ccc(-c2ccc3ncnc(Nc4ccc(OCc5cccc(F)c5)c(Cl)c4)c3c2)o1 [Lapatinib] (partner 2 µM) yielded a relative viability of 1.2.
The same measure, in the same setting: the result for `CCCCCCCCCCCC1=C(O)C(=O)C=C(O)C1=O` [Embelin] + C[C@@H](Oc1cc(-c2cnn(C3CCNCC3)c2)cnc1N)c1c(Cl)ccc(F)c1Cl [Crizotinib] (partner 1 µM) reads 0.766.

The same experiment, now with this note: first compound 8 µM.
For the compound `CCCCCCCCCCCC1=C(O)C(=O)C=C(O)C1=O` [Embelin] + O=C(CCCCCCC(=O)Nc1ccccc1)NO [Vorinostat] (partner 1 µM), the relative viability worked out at 0.744.
On the same count and under the same terms, the result for `CCCCCCCCCCCC1=C(O)C(=O)C=C(O)C1=O` [Embelin] + C[C@]1(O)C[C@@H](c2nc(-c3ccc4ccc(-c5ccccc5)nc4c3)c3c(N)nccn32)C1 [Linsitinib] (partner 1 µM) reads 0.916; that for `CCCCCCCCCCCC1=C(O)C(=O)C=C(O)C1=O` [Embelin] + CC(C)C[C@H](NC(=O)[C@H](Cc1ccccc1)NC(=O)c1cnccn1)B(O)O [Bortezomib] (partner 0.002 µM), 0.935; that for `CCCCCCCCCCCC1=C(O)C(=O)C=C(O)C1=O` [Embelin] + CS(=O)(=O)CCNCc1ccc(-c2ccc3ncnc(Nc4ccc(OCc5cccc(F)c5)c(Cl)c4)c3c2)o1 [Lapatinib] (partner 2 µM), 1.23.
The same measure, in the same setting: the result for `CCCCCCCCCCCC1=C(O)C(=O)C=C(O)C1=O` [Embelin] + C[C@@H](Oc1cc(-c2cnn(C3CCNCC3)c2)cnc1N)c1c(Cl)ccc(F)c1Cl [Crizotinib] (partner 1 µM) reads 0.937.

The next experiment deals with HCC-44. The experiment is described as above. The conditions noted are these: first compound 0.08 µM. The essentials:
as §1
`CCCCCCCCCCCC1=C(O)C(=O)C=C(O)C1=O` [Embelin] + O=C(CCCCCCC(=O)Nc1ccccc1)NO [Vorinostat] (partner 1 µM) showed a relative viability of 1.09.
On to `CCCCCCCCCCCC1=C(O)C(=O)C=C(O)C1=O` [Embelin] + C[C@]1(O)C[C@@H](c2nc(-c3ccc4ccc(-c5ccccc5)nc4c3)c3c(N)nccn32)C1 [Linsitinib] (partner 1 µM), for which the relative viability worked out at 0.739.
Take `CCCCCCCCCCCC1=C(O)C(=O)C=C(O)C1=O` [Embelin] + CC(C)C[C@H](NC(=O)[C@H](Cc1ccccc1)NC(=O)c1cnccn1)B(O)O [Bortezomib] (partner 0.002 µM): the relative viability is 0.838.
In the case of `CCCCCCCCCCCC1=C(O)C(=O)C=C(O)C1=O` [Embelin] + CS(=O)(=O)CCNCc1ccc(-c2ccc3ncnc(Nc4ccc(OCc5cccc(F)c5)c(Cl)c4)c3c2)o1 [Lapatinib] (partner 2 µM), the relative viability worked out at 1.03.
In turn, `CCCCCCCCCCCC1=C(O)C(=O)C=C(O)C1=O` [Embelin] + C[C@@H](Oc1cc(-c2cnn(C3CCNCC3)c2)cnc1N)c1c(Cl)ccc(F)c1Cl [Crizotinib] (partner 1 µM) yielded a relative viability of 0.771.

The experiment is the same for the next values; noted with them: first compound 0.8 µM.
The compound `CCCCCCCCCCCC1=C(O)C(=O)C=C(O)C1=O` [Embelin] + O=C(CCCCCCC(=O)Nc1ccccc1)NO [Vorinostat] (partner 1 µM) showed a relative viability of 1.08.
Still for that read-out and setting: to `CCCCCCCCCCCC1=C(O)C(=O)C=C(O)C1=O` [Embelin] + C[C@]1(O)C[C@@H](c2nc(-c3ccc4ccc(-c5ccccc5)nc4c3)c3c(N)nccn32)C1 [Linsitinib] (partner 1 µM) belongs 0.654; to `CCCCCCCCCCCC1=C(O)C(=O)C=C(O)C1=O` [Embelin] + CC(C)C[C@H](NC(=O)[C@H](Cc1ccccc1)NC(=O)c1cnccn1)B(O)O [Bortezomib] (partner 0.002 µM), 0.865.
For the compound `CCCCCCCCCCCC1=C(O)C(=O)C=C(O)C1=O` [Embelin] + CS(=O)(=O)CCNCc1ccc(-c2ccc3ncnc(Nc4ccc(OCc5cccc(F)c5)c(Cl)c4)c3c2)o1 [Lapatinib] (partner 2 µM), the relative viability stood at 1.02.
Compound `CCCCCCCCCCCC1=C(O)C(=O)C=C(O)C1=O` [Embelin] + C[C@@H](Oc1cc(-c2cnn(C3CCNCC3)c2)cnc1N)c1c(Cl)ccc(F)c1Cl [Crizotinib] (partner 1 µM) came in with a relative viability of 0.803.

Values taken from the supplement of paper PMC10307832.
